{"source": "patent US20200055848A1", "about": "“FURANONE DERIVATES AND METHODS OF USE THEREOF” (CARNA BIOSCIENCES, INC., priority 2016, published 2020)", "key": {"panel of 121 kinases": {"test_system": "panel of 121 kinases", "experiment": "Kinase selectivity screen over a panel of 121 kinases", "assay_type": "biochemical", "conditions": "1 mM ATP with preincubation", "procedure": "(§1) To investigate the representative kinase selectivity of these compounds at physiological ATP levels, compound 13 was screened over a panel of 121 kinases in the presence of 1 mM ATP with preincubation method. […] IC50 values of hit kinases were determined to confirm the selectivity of compound 13."}, "[1]": {"test_system": "phosphorylation of MCM2 in Colo-205 cells", "experiment": "Recovery of MCM2 phosphorylation after inhibitor washout", "assay_type": "cell-based, human", "conditions": "Colo-205 cells treated 48 hours, then compound-free media", "procedure": "Colo-205 cells were treated with or without compounds for 48 h. After inhibitor washout with compound-free media, the cells were lysed at the indicated time and subjected to western blot analysis.\nNext, we investigated the recovery of substrate phosphorylation in cells after inhibitor washout to see whether the slow-off rate of inhibitor affects the recovery of phosphorylation. Colo-205 cells were treated for 48 hours with 13, and then, the inhibitor was washed out with compound-free media. The cells were lysed at the indicated time, and the phosphorylation status of MCM2 was analyzed by western blotting."}, "PIM1": {"biological_target": "PIM1 (Homo sapiens, UniProt P11309)", "sequence (P11309 whole entry)": "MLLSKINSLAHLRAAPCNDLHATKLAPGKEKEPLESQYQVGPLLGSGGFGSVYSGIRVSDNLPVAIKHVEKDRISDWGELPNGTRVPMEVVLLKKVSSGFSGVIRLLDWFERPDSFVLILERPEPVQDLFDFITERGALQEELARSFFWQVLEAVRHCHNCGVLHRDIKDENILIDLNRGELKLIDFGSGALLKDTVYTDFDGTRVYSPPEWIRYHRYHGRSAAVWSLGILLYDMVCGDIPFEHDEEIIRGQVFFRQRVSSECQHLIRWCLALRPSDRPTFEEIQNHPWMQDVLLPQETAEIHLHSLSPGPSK", "experiment": "Kinase selectivity IC50, PIM1", "assay_type": "biochemical", "procedure": "as §1"}, "GSK3α": {"biological_target": "GSK3α (Homo sapiens, UniProt P49840)", "sequence (P49840 whole entry)": "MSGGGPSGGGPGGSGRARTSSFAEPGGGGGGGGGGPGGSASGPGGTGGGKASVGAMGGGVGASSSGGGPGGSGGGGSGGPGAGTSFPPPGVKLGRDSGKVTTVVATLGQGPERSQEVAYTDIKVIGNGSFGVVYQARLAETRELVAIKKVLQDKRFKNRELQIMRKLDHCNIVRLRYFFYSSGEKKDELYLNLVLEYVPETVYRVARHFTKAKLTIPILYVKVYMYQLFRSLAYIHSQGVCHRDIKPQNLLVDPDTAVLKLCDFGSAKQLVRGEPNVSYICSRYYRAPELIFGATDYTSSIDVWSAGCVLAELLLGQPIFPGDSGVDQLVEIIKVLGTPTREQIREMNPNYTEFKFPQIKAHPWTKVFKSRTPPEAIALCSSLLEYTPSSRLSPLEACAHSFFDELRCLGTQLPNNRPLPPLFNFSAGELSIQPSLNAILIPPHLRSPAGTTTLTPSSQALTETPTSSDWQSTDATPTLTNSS", "experiment": "Kinase selectivity IC50, GSK3α", "assay_type": "biochemical", "procedure": "as §1"}, "phospho-H2AX (γ-H2AX)": {"test_system": "phospho-H2AX (γ-H2AX)", "experiment": "Western blotting of phospho-H2AX in Colo-205 cells", "assay_type": "cell-based, human", "conditions": "48 h", "procedure": "(§2) FIGS. 3A and 3B illustrate the effects of Cdc7 inhibition by compound 13 in Colo-205 cells. a) Western blot analysis of extracts prepared from Colo-205 cells at 48 h after treatment with DMSO control (0 μM) or compound 13 at indicated concentrations. b) […] analysis of Colo-205 cells treated for 48 h with DMSO control (0 μM) and the indicated concentration of compound 13. DNA content was measured by FACS after propidium iodide staining.\n(§3) Human colon adenocarcinoma cell line Colo-205 was obtained from American Type Culture Collection (ATCC, Manassas Va.). Cells were grown in RPMI1640 supplemented with 10% FBS and 1% penicillin/streptomycin at 37° C., 5% CO2 and 95% humidity. Antibodies against Phospho-Histone H2A.X (Ser139) (no. 2577), Cleaved PARP (Asp214) (no. 9541) and MCM2 (no. 3619) were obtained from Cell signaling Technology. […]\n(§4) Cells were seeded in T75 flasks (cell density, 2.25×10^6 cells/13.5 mL) and then incubated at 37° C. overnight. […] After washing with cold D-PBS, cells were scraped and lysed using a lysis buffer [RIPA Buffer (×1) containing 1% Phosphatase inhibitor Cocktail 3, 1% Phosphatase inhibitor Cocktail, and 1 mM phenylmethylsulfonyl fluoride], and the obtained samples were analyzed by western blotting. […] Each band was detected by chemiluminescence using a CCD camera (ImageQuant LAS 500, GE healthcare Ltd.)."}, "cleaved PARP": {"test_system": "cleaved PARP", "experiment": "Western blotting of cleaved PARP in Colo-205 cells", "assay_type": "cell-based, human", "conditions": "48 h", "procedure": "as §2, §3, §4"}, "Cdc7": {"biological_target": "Cdc7 (Homo sapiens, UniProt O00311)", "sequence (O00311 whole entry)": "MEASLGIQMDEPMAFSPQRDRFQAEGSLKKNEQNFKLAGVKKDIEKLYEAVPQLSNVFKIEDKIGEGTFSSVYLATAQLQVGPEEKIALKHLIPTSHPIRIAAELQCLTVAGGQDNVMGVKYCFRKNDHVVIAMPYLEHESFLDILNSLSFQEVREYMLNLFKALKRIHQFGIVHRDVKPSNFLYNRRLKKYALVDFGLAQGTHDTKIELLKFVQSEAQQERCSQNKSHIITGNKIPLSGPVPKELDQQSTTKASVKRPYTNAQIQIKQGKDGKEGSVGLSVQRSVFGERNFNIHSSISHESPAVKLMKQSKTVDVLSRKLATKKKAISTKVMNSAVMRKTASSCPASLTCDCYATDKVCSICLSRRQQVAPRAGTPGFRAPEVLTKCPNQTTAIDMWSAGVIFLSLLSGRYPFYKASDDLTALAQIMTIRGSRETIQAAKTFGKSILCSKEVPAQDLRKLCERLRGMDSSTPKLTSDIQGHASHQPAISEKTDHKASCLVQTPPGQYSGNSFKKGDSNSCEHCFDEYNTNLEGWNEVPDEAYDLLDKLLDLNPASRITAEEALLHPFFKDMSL", "sequence (Q9UBU7 whole entry partner)": "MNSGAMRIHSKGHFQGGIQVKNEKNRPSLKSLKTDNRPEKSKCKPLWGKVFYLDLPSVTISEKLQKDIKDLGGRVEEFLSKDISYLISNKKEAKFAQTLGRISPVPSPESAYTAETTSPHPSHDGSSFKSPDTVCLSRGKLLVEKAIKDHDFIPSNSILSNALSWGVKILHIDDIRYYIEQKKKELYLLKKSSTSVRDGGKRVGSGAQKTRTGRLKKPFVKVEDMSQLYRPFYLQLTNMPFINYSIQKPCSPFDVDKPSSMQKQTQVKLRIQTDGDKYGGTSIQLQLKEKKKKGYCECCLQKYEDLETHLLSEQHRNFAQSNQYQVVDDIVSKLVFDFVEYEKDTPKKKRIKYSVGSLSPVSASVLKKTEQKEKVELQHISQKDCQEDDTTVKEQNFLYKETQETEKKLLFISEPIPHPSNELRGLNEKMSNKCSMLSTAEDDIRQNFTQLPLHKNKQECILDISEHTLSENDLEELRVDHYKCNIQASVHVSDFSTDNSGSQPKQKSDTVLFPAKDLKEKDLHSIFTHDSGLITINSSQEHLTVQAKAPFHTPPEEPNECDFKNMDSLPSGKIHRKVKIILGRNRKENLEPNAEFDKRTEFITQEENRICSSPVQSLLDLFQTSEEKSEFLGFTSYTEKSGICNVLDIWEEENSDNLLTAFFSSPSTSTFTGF", "experiment": "Rapid dilution assay (dissociation rate from Cdc7)", "assay_type": "biochemical", "description": "FIG. 2 is a graph of the results obtained from the rapid dilution assay for Cdc7 inhibitors. Recovery of enzymatic activity was monitored by formation of the phosphorylated product. DMSO control (closed circle), compound 1 (open triangle), compound 13 (open square).\nTo better understand the observed time dependent inhibition of these compounds, compound 13 was subjected to the rapid dilution assay to study dissociation rate, and compared with compound 1. The inhibitor-enzyme mixture was rapidly diluted into the assay buffer containing the substrate and a high concentration of ATP, and then the phosphorylated product formation was monitored over 500 min of time course."}, "CLK2": {"biological_target": "CLK2 (Homo sapiens, UniProt P49760)", "sequence (P49760 whole entry)": "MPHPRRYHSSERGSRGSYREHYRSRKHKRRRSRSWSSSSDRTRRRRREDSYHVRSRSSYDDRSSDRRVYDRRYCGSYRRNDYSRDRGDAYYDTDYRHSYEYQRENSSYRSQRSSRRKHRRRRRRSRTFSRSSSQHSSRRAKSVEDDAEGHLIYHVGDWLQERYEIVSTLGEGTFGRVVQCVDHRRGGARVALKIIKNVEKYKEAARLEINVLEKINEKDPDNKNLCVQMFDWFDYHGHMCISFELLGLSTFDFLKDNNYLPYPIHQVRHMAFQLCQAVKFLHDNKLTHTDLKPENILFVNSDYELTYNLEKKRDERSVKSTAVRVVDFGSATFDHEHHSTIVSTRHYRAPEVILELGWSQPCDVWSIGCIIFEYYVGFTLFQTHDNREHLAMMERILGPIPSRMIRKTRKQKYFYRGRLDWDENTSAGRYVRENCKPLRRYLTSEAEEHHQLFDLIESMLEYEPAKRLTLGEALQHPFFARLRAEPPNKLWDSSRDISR", "experiment": "Kinase selectivity IC50, CLK2", "assay_type": "biochemical", "procedure": "as §1"}, "[2]": {"test_system": "phosphorylation at Ser53 of MCM2", "experiment": "Western blotting of MCM2 phosphorylation in Colo-205 cells", "assay_type": "cell-based, human", "conditions": "48 h, even at 0.1 μM", "procedure": "as §2, §3, §4"}, "[3]": {"conditions": "1 mM ATP with preincubation, mean of duplicated assays"}}, "data": [{"compound": "CCOC(=O)C1=C(Nc2ccccc2Cl)OC(=Cc2c[nH]c3ncccc23)C1=O", "note": "[Compound 13, Ethyl 5-((1H-pyrrolo[2,3-b]pyridin-3-yl)methylene)-2-((2-chlorophenyl)amino)-4-oxo-4,5-dihydrofuran-3-carboxylate]", "values": [{"measurement": "selectivity in favor of Cdc7 over CLKs", "setting": "panel of 121 kinases", "value": 8, "unit": "fold"}, {"measurement": "share of the kinase panel inhibited", "setting": "panel of 121 kinases; >50% inhibition at 0.1 μM, 121 kinases", "value": 7, "unit": "%"}, {"measurement": "phosphorylation of MCM2 after inhibitor washout", "setting": "[1]", "value": "inhibited even 24 hours after washout"}, {"measurement": "IC50", "setting": "PIM1; [3]", "value": 77, "unit": "nM"}, {"measurement": "Fold selectivity, PIM1", "setting": "PIM1; IC50 versus Cdc7", "value": 129, "unit": "fold"}, {"measurement": "IC50", "setting": "GSK3α; [3]", "value": 37, "unit": "nM"}, {"measurement": "Fold selectivity, GSK3α", "setting": "GSK3α; IC50 versus Cdc7", "value": 61, "unit": "fold"}, {"measurement": "DNA double strand breaks (phospho-H2AX, γ-H2AX)", "setting": "phospho-H2AX (γ-H2AX)", "value": "DNA strand breakages were observed"}, {"measurement": "cleaved PARP (apoptosis marker)", "setting": "cleaved PARP", "value": "Dose-dependent increases"}, {"measurement": "phosphorylated product formation after rapid dilution", "setting": "Cdc7; monitored over 500 min", "value": "much reduced rate"}, {"measurement": "koff", "setting": "Cdc7; rapid dilution, high concentration of ATP, read-out: off-rate from Cdc7 (koff) (converted)", "value": "5.83e-05", "unit": "s⁻¹"}, {"measurement": "residence time", "setting": "Cdc7; rapid dilution, high concentration of ATP, read-out: t1/2 of dissociation from Cdc7", "value": 197, "unit": "min"}, {"measurement": "IC50", "setting": "CLK2; [3]", "value": 5.3, "unit": "nM"}, {"measurement": "Fold selectivity, CLK2", "setting": "CLK2; IC50 versus Cdc7", "value": 8.8, "unit": "fold"}, {"measurement": "inhibition of phosphorylation at Ser53 of MCM2", "setting": "[2]", "value": "potently inhibited"}]}]}
